Where two headings read alike, the source gives them in different places.
What was measured:
Type in all cases: cell-based
HTT mRNA = assay: Splicing assay (RT-qPCR) monitoring HTT canonical junction (CJ) and alternative junction (AJ) mRNA isoforms; details: A673 or K562 cells, 24 h treatment, top dose 10 uM
Procedure, shortened: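 A673 or K562 cells treated 24 h at 37 °C with an 11-point 3-fold dilution (top 10 uM final, DMSO ≤0.25%). Lysates assayed by one-step RT-qPCR for HTT CJ and AJ isoforms, normalized to GAPDH, GUSB (K562) or PPIA (A673).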

HTT CJ mRNA = assay: Gene panel canonical junction qPCR assay, HTT; details: decrease in CJ mRNA levels, gene panel; read-out: HTT IC50
Procedure, shortened: (§1)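 A673 or K562 cells were treated for 24 h at 37 °C with an 11-point 3-fold dilution, top dose 10 uM, DMSO ≤0.25%. Canonical junction mRNA in lysates was quantified by one-step RT-qPCR and normalized to GAPDH, GUSB or PPIA.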

Target C CJ mRNA = assay: Gene panel canonical junction qPCR assay, Target C; details: decrease in CJ mRNA levels, gene panel; read-out: Target C IC50
Procedure, shortened: as §1

SMN2 CJ mRNA = assay: Gene panel canonical junction qPCR assay, SMN2; details: decrease in CJ mRNA levels, gene panel; read-out: SMN2 IC50
Procedure, shortened: as §1

[1] = decrease in CJ mRNA (50% response), read-out: HTT CJ AC50
[2] = increase in AJ mRNA (50% response), read-out: HTT AJ AC50

Cc1cn2nc(-c3ccc4c(=O)n(C5CCN(C)C5)ncc4c3)cc(C)c2n1 (stereo not drawn) [Compound 271, 6-{2,8-dimethylimidazo[1,2-b]pyridazin-6-yl}-2-(1-methylpyrrolidin-3-yl)phthalazin-1-one]
AC50 (HTT mRNA; [1]): 1000 to 10000 nM | AC50 (HTT mRNA; [2]): 1000 to 10000 nM | IC50 (HTT CJ mRNA): 1000 to 10000 nM | IC50 (Target C CJ mRNA): 1000 to 10000 nM | IC50 (SMN2 CJ mRNA): 100 to 1000 nM

Cc1nc2c(F)cc(-c3ccc4c(=O)n(C5CCNCC5)cnc4c3)cc2s1 [Compound 285]
AC50 (HTT mRNA; [1]): 1000 to 10000 nM | AC50 (HTT mRNA; [2]): > 10000 nM | IC50 (HTT CJ mRNA): 1000 to 10000 nM | IC50 (Target C CJ mRNA): > 10000 nM | IC50 (SMN2 CJ mRNA): < 100 nM

Cc1cn2nc(-c3ccc4c(=O)n([C@@H]5CCN[C@H](C)C5)ncc4c3)cc(C)c2n1 [Compound 272]
AC50 (HTT mRNA; [1]): < 100 nM | AC50 (HTT mRNA; [2]): 100 to 1000 nM | IC50 (HTT CJ mRNA): < 100 nM | IC50 (Target C CJ mRNA): 100 to 1000 nM | IC50 (SMN2 CJ mRNA): < 100 nM

Cc1cn2cc(-c3cc(F)c4c(=O)n(C5CCN(C)CC5)cnc4c3)cc(F)c2n1 [Compound 231, 5-fluoro-7-(8-fluoro-2-methylimidazo[1,2-a]pyridin-6-yl)-3-(1-methylpiperidin-4-yl)quinazolin-4(3H)-one]
AC50 (HTT mRNA; [1]): 100 to 1000 nM | AC50 (HTT mRNA; [2]): 100 to 1000 nM | IC50 (HTT CJ mRNA): 100 to 1000 nM | IC50 (Target C CJ mRNA): 1000 to 10000 nM | IC50 (SMN2 CJ mRNA): < 100 nM

Cc1cn2cc(-c3ccc4c(=O)n(C5CCNCC5)cnc4c3F)cc(F)c2n1 [Compound 210, 8-fluoro-7-(8-fluoro-2-methylimidazo[1,2-a]pyridin-6-yl)-3-(piperidin-4-yl)quinazolin-4(3H)-one]
AC50 (HTT mRNA; [1]): 1000 to 10000 nM | AC50 (HTT mRNA; [2]): 1000 to 10000 nM | IC50 (HTT CJ mRNA): 1000 to 10000 nM | IC50 (Target C CJ mRNA): 1000 to 10000 nM | IC50 (SMN2 CJ mRNA): 100 to 1000 nM

Cc1cn2nc(-c3ccc4c(=O)n(C5CCN(C)CC5)cnc4c3)cc(C)c2n1 [Compound 176, 7-(2,8-dimethylimidazo[1,2-b]pyridazin-6-yl)-3-(1-methylpiperidin-4-yl)quinazolin-4(3H)-one]
AC50 (HTT mRNA; [1]): 1000 to 10000 nM | AC50 (HTT mRNA; [2]): 1000 to 10000 nM | IC50 (HTT CJ mRNA): 1000 to 10000 nM | IC50 (Target C CJ mRNA): 1000 to 10000 nM | IC50 (SMN2 CJ mRNA): 100 to 1000 nM

Cc1cn2nc(-n3cnc4cc(N5CCNCC5)ccc4c3=O)cc(C)c2n1 [Compound 241, 3-(2,8-dimethylimidazo[1,2-b]pyridazin-6-yl)-7-(piperazin-1-yl)quinazolin-4(3H)-one]
AC50 (HTT mRNA; [1]): 1000 to 10000 nM | AC50 (HTT mRNA; [2]): 1000 to 10000 nM | IC50 (HTT CJ mRNA): 1000 to 10000 nM | IC50 (Target C CJ mRNA): 1000 to 10000 nM | IC50 (SMN2 CJ mRNA): 1000 to 10000 nM

Cc1cn2nc(-c3cc(F)c4c(=O)n(C5CCNCC5)cnc4c3)cc(C)c2n1 [Compound 243, 7-(2,8-dimethylimidazo[1,2-b]pyridazin-6-yl)-5-fluoro-3-(piperidin-4-yl)quinazolin-4(3H)-one]
AC50 (HTT mRNA; [1]): < 100 nM | AC50 (HTT mRNA; [2]): < 100 nM | IC50 (HTT CJ mRNA): < 100 nM | IC50 (Target C CJ mRNA): < 100 nM | IC50 (SMN2 CJ mRNA): < 100 nM

Cn1cc2cc(-c3ccc4c(c3)CCN(C3CCNCC3)C4=O)cc(F)c2n1 [Compound 225]
AC50 (HTT mRNA; [1]): > 10000 nM | AC50 (HTT mRNA; [2]): > 10000 nM | IC50 (HTT CJ mRNA): > 10000 nM | IC50 (Target C CJ mRNA): > 10000 nM | IC50 (SMN2 CJ mRNA): > 10000 nM

Cc1cn2cc(-c3ccc4c(c3)CCN(C3CCNCC3)C4=O)cc(F)c2n1 [Compound 247, 6-[8-fluoro-2-methylimidazo[1,2-a]pyridin-6-yl]-2-(piperidin-4-yl)-3,4-dihydroisoquinolin-1-one]
AC50 (HTT mRNA; [1]): 1000 to 10000 nM | AC50 (HTT mRNA; [2]): 1000 to 10000 nM | IC50 (HTT CJ mRNA): 1000 to 10000 nM | IC50 (Target C CJ mRNA): 1000 to 10000 nM | IC50 (SMN2 CJ mRNA): < 100 nM

Cc1cn2cc(-c3ccc4c(=O)n(C5CCNCC5)cnc4c3)nc2c(C)n1 [Compound 286]
AC50 (HTT mRNA; [1]): 1000 to 10000 nM | AC50 (HTT mRNA; [2]): 1000 to 10000 nM | IC50 (HTT CJ mRNA): 1000 to 10000 nM | IC50 (Target C CJ mRNA): 1000 to 10000 nM | IC50 (SMN2 CJ mRNA): 100 to 1000 nM

Cn1cc2cc(-n3cnc4cc(C5=CC6CCC(C5)N6)ccc4c3=O)ccc2n1 (stereo not drawn) [Compound 160, 7-(8-azabicyclo[3.2.1]oct-2-en-3-yl)-3-(2-methyl-2H-indazol-5-yl)quinazolin-4(3H)-one]
AC50 (HTT mRNA; [1]): > 10000 nM | AC50 (HTT mRNA; [2]): > 10000 nM | IC50 (HTT CJ mRNA): > 10000 nM | IC50 (Target C CJ mRNA): > 10000 nM | IC50 (SMN2 CJ mRNA): > 10000 nM
